# Source: patent US8486996B2, “Aroylfuranes and aroylthiophenes” (Basilea Pharmaceutica AG, priority 2006, dated 2013)
# pEC50, pIC50: −log10 of the molar value. Read-outs that look alike come from different tables or passages of the source.
# Experiments:
# [1] = Hoechst 33342 nuclear staining (48 h read-out); format: cell-based
# Procedure, shortened: (§1)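 Adherent cells pre-spread 24 h before dosing, suspension cells dosed at seeding; compounds at 0.001 μM-10 μM final, 48 h at culture conditions. Hoechst 33342 (2-5 μg/ml) added for 30 min, then fluorescence microscopy scoring of apoptotic nuclear fraction and apoptosis-specific morphology, reported as scores A-D.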
# [2] = system: tumor cells; assay: Hoechst 33342 nuclear staining (48 h read-out); format: cell-based
# Procedure, shortened: as §1
# [3] = MTS proliferation assay (72 h read-out); format: cell-based; conditions: MRC5 cells
# Procedure, shortened: (§2)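 Tumour cells (1.5×10^3–10^4 per well) were seeded 24 h before compound addition, then exposed to 0.001–10 μM final compound for 72 h under culture conditions. MTS reagent was added for a further 3 h, absorbance was read at 492 nm, and results were binned into scores A–D.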
# [4] = system: tumor cells; assay: MTS proliferation assay (72 h read-out); format: cell-based
# Procedure, shortened: as §2
# [5] = Mitochondrial membrane potential, JC-1 (read-out 48 h); format: cell-based; conditions: PBL, JC-1, 48 h
# Procedure, shortened: (§3)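 Tumor cells were treated with test compounds (adherent cells after 24 h of attachment, suspension cells immediately), medium holding up to 5% DMSO. After 48 h, JC-1 (2-5 μg/ml in added medium) was applied for 30 min. Fluorescence microscopy (FITC/TRITC filters) scored the fraction of cells with dissipated mitochondrial membrane potential as categories A-D.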
# [6] = system: tumor cells; assay: as above; format: cell-based; conditions: JC-1, 48 h
# Procedure, shortened: as §3
# [7] = system: HeLa; assay: Colony Forming Units (read-out 6 days), HeLa; format: cell-based, human; conditions: colonies containing more than 30 cells, read-out: Colony Forming Units, score based on IC50, HeLa
# Procedure: (§4) Appropriate numbers of cells (100-150 cells, dependent on the cell type) are being seeded out in 1 ml complete medium into 6-well plates and allowed to attach for 48 h. The compounds are added after 48 h in 500 μl solution. The concentrations are in the range of 0.001 μM-3 μM. Control plates receive the same volume of medium containing the appropriate amount of DMSO. The plates are incubated for 5-7 days at cell culture conditions and subsequently scored for growth of colonies (containing more than 30 cells) by using a microscope.
# [8] = system: H460; assay: Colony Forming Units (read-out 6 days), H460; format: cell-based, human; conditions: colonies containing more than 30 cells, read-out: Colony Forming Units, score based on IC50, H460
# Procedure: as §4
# [9] = MRC5 cells, read-out: Hoechst 33342 nuclear staining EC50, MRC5
# [10] = PBL, read-out: Hoechst 33342 nuclear staining EC50, PBL
# [11] = HeLa cells, read-out: Hoechst 33342 nuclear staining EC50, HeLa
# [12] = Jily cells, read-out: Hoechst 33342 nuclear staining EC50, Jily
# [13] = Jurkat cells, read-out: Hoechst 33342 nuclear staining EC50, Jurkat
# [14] = HT1080 cells, read-out: MTS proliferation assay IC50, HT1080
# [15] = HeLa cells, read-out: MTS proliferation assay IC50, HeLa
# [16] = Jily cells, read-out: MTS proliferation assay IC50, Jily
# [17] = Jurkat cells, read-out: MTS proliferation assay IC50, Jurkat
# [18] = HeLa cells, read-out: Mitochondrial membrane potential (read-out 48 h) HeLa
# [19] = Jily cells, read-out: Mitochondrial membrane potential (read-out 48 h) Jily
# [20] = Jurkat cells, read-out: Mitochondrial membrane potential (read-out 48 h) Jurkat
# [21] = MCF7 cells, read-out: Mitochondrial membrane potential (read-out 48 h) MCF7
Structure (SMILES),"pEC50 [1, 9]","pEC50 [1, 10]","pEC50 [2, 11]","pEC50 [2, 12]","pEC50 [2, 13]",pIC50 [3],"pIC50 [4, 14]","pIC50 [4, 15]","pIC50 [4, 16]","pIC50 [4, 17]",pEC50 [5],"pEC50 [6, 18]","pEC50 [6, 19]","pEC50 [6, 20]","pEC50 [6, 21]",pIC50 [7],pIC50 [8],other results
CCOc1ccc(F)cc1C(=O)c1oc2ccc(OC)cc2c1NC(=O)COC [Example 58],< 6.00,< 6.00,6.00 to 7.00,7.00 to 8.00,7.00 to 8.00,7.00 to 8.00,7.00 to 8.00,7.00 to 8.00,7.00 to 8.00,> 8.00,< 6.00,6.00 to 7.00,7.00 to 8.00,7.00 to 8.00,6.00 to 7.00,7.00 to 8.00,7.00 to 8.00,–
CCOc1ccc(F)cc1C(=O)c1oc2ccc(OC)cc2c1N [Example 48],> 8.00,< 6.00,> 8.00,> 8.00,> 8.00,> 8.00,> 8.00,> 8.00,> 8.00,> 8.00,6.00 to 7.00,7.00 to 8.00,> 8.00,> 8.00,7.00 to 8.00,7.00 to 8.00,> 8.00,–
"CCOc1ccccc1C(=O)c1oc2ccc(Cl)cc2c1N [Example 2, 3-Amino-5-chloro-2-(2-ethoxybenzoyl)-benzofuran]",–,< 6.00,–,7.00 to 8.00,–,–,–,–,7.00 to 8.00,–,< 6.00,–,7.00 to 8.00,–,–,–,–,"pEC50 ([1]; Homo sapiens, MRC5 cells, read-out: Hoechst 33342 nuclear staining EC50, MRC5): 7.00 to 8.00; pEC50 ([2]; Homo sapiens, HeLa cells, read-out: Hoechst 33342 nuclear staining EC50, HeLa): 7.00 to 8.00; pEC50 ([2]; Homo sapiens, Jurkat cells, read-out: Hoechst 33342 nuclear staining EC50, Jurkat): > 8.00; pIC50 ([3]; Homo sapiens): 7.00 to 8.00; pIC50 ([4]; Homo sapiens, HT-1080, HT1080 cells, read-out: MTS proliferation assay IC50, HT1080): 7.00 to 8.00; pIC50 ([4]; Homo sapiens, HeLa cells, read-out: MTS proliferation assay IC50, HeLa): 7.00 to 8.00; pIC50 ([4]; Homo sapiens, Jurkat cells, read-out: MTS proliferation assay IC50, Jurkat): > 8.00; pEC50 ([6]; Homo sapiens, HeLa cells, read-out: Mitochondrial membrane potential (read-out 48 h) HeLa): 7.00 to 8.00; pEC50 ([6]; Homo sapiens, Jurkat cells, read-out: Mitochondrial membrane potential (read-out 48 h) Jurkat): > 8.00; pEC50 ([6]; Homo sapiens, MCF7 cells, read-out: Mitochondrial membrane potential (read-out 48 h) MCF7): 6.00 to 7.00; pIC50 ([7]; Homo sapiens, 144 h): 7.00 to 8.00; pIC50 ([8]; Homo sapiens, NCI-H460, 144 h): 7.00 to 8.00"
CCOc1ncccc1C(=O)c1oc2ccc(Cl)cc2c1N [Example 78],< 6.00,< 6.00,7.00 to 8.00,7.00 to 8.00,> 8.00,> 8.00,> 8.00,7.00 to 8.00,> 8.00,> 8.00,< 6.00,7.00 to 8.00,7.00 to 8.00,> 8.00,6.00 to 7.00,7.00 to 8.00,7.00 to 8.00,–
C#CCOc1ccc(OC)cc1C(=O)c1oc2ccc(Cl)cc2c1N [Example 13],6.00 to 7.00,–,6.00 to 7.00,6.00 to 7.00,6.00 to 7.00,6.00 to 7.00,6.00 to 7.00,6.00 to 7.00,7.00 to 8.00,7.00 to 8.00,< 6.00,6.00 to 7.00,6.00 to 7.00,6.00 to 7.00,6.00 to 7.00,6.00 to 7.00,6.00 to 7.00,–
Nc1c(C(=O)c2cccnc2N2CCCCC2)oc2ccc(Cl)cc12 [Example 82],7.00 to 8.00,< 6.00,7.00 to 8.00,7.00 to 8.00,> 8.00,> 8.00,> 8.00,> 8.00,> 8.00,> 8.00,< 6.00,7.00 to 8.00,> 8.00,> 8.00,7.00 to 8.00,7.00 to 8.00,7.00 to 8.00,–
Nc1c(C(=O)c2ccccc2OCC(F)(F)F)oc2ccc(Cl)cc12 [Example 61],< 6.00,< 6.00,6.00 to 7.00,7.00 to 8.00,> 8.00,7.00 to 8.00,7.00 to 8.00,7.00 to 8.00,> 8.00,> 8.00,< 6.00,6.00 to 7.00,7.00 to 8.00,7.00 to 8.00,< 6.00,7.00 to 8.00,7.00 to 8.00,–
CCN(C)c1ncccc1C(=O)c1oc2ccc(Cl)cc2c1N [Example 80],< 6.00,< 6.00,6.00 to 7.00,6.00 to 7.00,6.00 to 7.00,6.00 to 7.00,6.00 to 7.00,6.00 to 7.00,7.00 to 8.00,7.00 to 8.00,< 6.00,6.00 to 7.00,6.00 to 7.00,7.00 to 8.00,< 6.00,6.00 to 7.00,6.00 to 7.00,–
CCOc1ccc2oc(C(=O)c3cc(F)ccc3OCC)cc2c1 [Example 66],6.00 to 7.00,< 6.00,7.00 to 8.00,> 8.00,7.00 to 8.00,> 8.00,> 8.00,> 8.00,> 8.00,–,< 6.00,6.00 to 7.00,7.00 to 8.00,7.00 to 8.00,6.00 to 7.00,> 8.00,> 8.00,–
COCCOc1ccccc1C(=O)c1oc2ccc(Cl)cc2c1N [Example 6],< 6.00,< 6.00,6.00 to 7.00,6.00 to 7.00,6.00 to 7.00,< 6.00,< 6.00,6.00 to 7.00,6.00 to 7.00,6.00 to 7.00,< 6.00,6.00 to 7.00,6.00 to 7.00,6.00 to 7.00,6.00 to 7.00,6.00 to 7.00,6.00 to 7.00,–
